System: HIV
Assay: HOS HIV anti-infectivity assay (strain not stated)
Assay type: cell-based
Conditions: Human immunodeficiency virus 1, HOS HIV anti-infectivity assay; read-out: Activity Level
Description: Compounds were profiled against two HIV-1 viruses, the M-tropic (CCR5 utilizing) Ba-L strain and the T-tropic (CXCR4 utilizing) IIIB strain. Both viruses were propagated in human peripheral blood lymphocytes. Compounds were tested for there ability to block infection of the HOS cell line (expressing hCXCR4/hCCR5/hCD4/pHIV-LTR-luciferase) by either HIV-1 Ba-L or HIV-1 IIIB. Compound cytotoxicity was also examined in the absence of virus addition.
HOS cells (expressing hCXCR4/hCCR5/hCD4/pHIV-LTR-luciferase) were harvested and diluted in Dulbeccos modified Eagles media supplemented with 2% FCS and non-essential amino acid to a concentration of 60,000 cells/ml. The cells were plated into 96-well plates (100 ul per well) and the plates were placed in a tissue culture incubator (37° C.; 5% CO2/95% air) for a period of 24 h.
Subsequently, 50 ul of the desired drug solution (4 times the final concentration) was added to each well and the plates were returned to the tissue culture incubator (37° C.; 5% CO2/95% air) for 1 h. Following this incubation 50 ul of diluted virus was added to each well (approximately 2 million RLU per well of virus). The plates were returned to the tissue culture incubator (37° C.; 5% CO2/95% air) and were incubated for a further 96 h.
Following this incubation the endpoint for the virally infected cultures was quantified following addition of Steady-Glo Luciferase assay system reagent (Promega, Madison, Wis.). Cell viability or non-infected cultures was measured using a CellTiter-Glo luminescent cell viability assay system (Promega, Madison, Wis.). All luminescent readouts are performed on a Topcount luminescence detector (Packard, Meridien, Conn.).

| IC50 [nM] | SMILES |
| --- | --- |
| < 100 | CN1CCN(c2cccc3nc(CN(C)C4CCCc5cccnc54)c(CO)n23)CC1 (stereo not drawn) [Example 20, (5-(4-Methyl-1-piperazinyl)-2-{[methyl(5,6,7,8-tetrahydro-8-quinolinyl)amino]methyl}imidazo[1,2-a]pyridin-3-yl)methanol] |
| < 100 | CN1CCN(c2cccc3nc(CN(C)[C@H]4CCCc5cccnc54)c(CO)n23)CC1 [Example 25, [5-(4-Methyl-1-piperazinyl)-2-({methyl[(8S)-5,6,7,8-tetrahydro-8-quinolinyl]amino}methyl)imidazo[1,2-a]pyridin-3-yl]methanol] |
| < 100 | CN(Cc1nc2cccc(N3CCN4CCCC4C3)n2c1CO)[C@H]1CCCc2cccnc21 (stereo partly drawn) [Example 44, [5-(Hexahydropyrrolo[1,2-a]pyrazin-2(1H)-yl)-2-({methyl[(8S)-5,6,7,8-tetrahydro-8-quinolinyl]amino}methyl)imidazo[1,2-a]pyridin-3-yl]methanol] |
| < 100 | CN(C)[C@@H]1CCN(c2cccc3nc(CN(C)[C@H]4CCCc5cccnc54)c(CO)n23)C1 [Example 46, [5-[(3R)-3-(Dimethylamino)-1-pyrrolidinyl]-2-({methyl[(8S)-5,6,7,8-tetrahydro-8-quinolinyl]amino}methyl)imidazo[1,2-a]pyridin-3-yl]methanol] |
| < 100 | CCN1CCN(c2cccc3nc(CN(C)[C@H]4CCCc5cccnc54)c(CO)n23)CC1 [Example 54, [5-(4-Ethyl-1-piperazinyl)-2-({methyl[(8S)-5,6,7,8-tetrahydro-8-quinolinyl]amino}methyl)imidazo[1,2-a]pyridin-3-yl]methanol] |
| < 100 | CN(C)[C@H]1CCN(c2cccc3nc(CN(C)[C@H]4CCCc5cccnc54)c(CO)n23)C1 [Example 58, [5-[(3S)-3-(Dimethylamino)-1-pyrrolidinyl]-2-({methyl[(8S)-5,6,7,8-tetrahydro-8-quinolinyl]amino}methyl)imidazo[1,2-a]pyridin-3-yl]methanol] |
| < 100 | CN(Cc1nc2cccc(N3CC[C@@H](N)C3)n2c1CO)[C@H]1CCCc2cccnc21 [Example 60, [5-[(3R)-3-Amino-1-pyrrolidinyl]-2-({methyl[(8S)-5,6,7,8-tetrahydro-8-quinolinyl]amino}methyl)imidazo[1,2-a]pyridin-3-yl]methanol] |
| < 100 | CN[C@@H]1CCN(c2cccc3nc(CN(C)[C@H]4CCCc5cccnc54)c(CO)n23)C1 [Example 63, [5-[(3R)-3-(Methylamino)-1-pyrrolidinyl]-2-({methyl[(8S)-5,6,7,8-tetrahydro-8-quinolinyl]amino}methyl)imidazo[1,2-a]pyridin-3-yl]methanol] |
| < 100 | CCN(Cc1nc2cccc(N3CC[C@@H](N(C)C)C3)n2c1CO)[C@H]1CCCc2cccnc21 [Example 66, [5-[(3R)-3-(Dimethylamino)-1-pyrrolidinyl]-2-({ethyl[(8S)-5,6,7,8-tetrahydro-8-quinolinyl]amino}methyl)imidazo[1,2-a]pyridin-3-yl]methanol] |
| < 100 | CN(Cc1nc2cccc(N3CCC(N)CC3)n2c1CO)[C@H]1CCCc2cccnc21 [Example 76, [5-(4-Amino-1-piperidinyl)-2-({methyl[(8S)-5,6,7,8-tetrahydro-8-quinolinyl]amino}methyl)imidazo[1,2-a]pyridin-3-yl]methanol] |

The remaining lines, values behind:

| SMILES | IC50 [nM] |
| --- | --- |
| COc1ccc([C@H](C)N(Cc2nc3cccc(N4CCN(C)CC4)n3c2CO)[C@H]2CCCc3cccnc32)cc1 [Example 22, [2-({{(1S)-1-[4-(Methyloxy)phenyl]ethyl}[(8S)-5,6,7,8-tetrahydro-8-quinolinyl]amino}methyl)-5-(4-methyl-1-piperazinyl)imidazo[1,2-a]pyridin-3-yl]methanol] | < 100 |
| CN(C)CCN(C)c1cccc2nc(CN(C)[C@H]3CCCc4cccnc43)c(CO)n12 [Example 28, [5-[[2-(Dimethylamino)ethyl](methyl)amino]-2-({methyl[(8S)-5,6,7,8-tetrahydro-8-quinolinyl]amino}methyl)imidazo[1,2-a]pyridin-3-yl]methanol] | < 100 |
| CN1CCN(c2cccc3nc(CN(C)C4CCCCc5cccnc54)c(CO)n23)CC1 (stereo not drawn) [Example 30, (5-(4-Methyl-1-piperazinyl)-2-{[methyl(6,7,8,9-tetrahydro-5H-cyclohepta[b]pyridin-9-yl)amino]methyl}imidazo[1,2-a]pyridin-3-yl)methanol] | < 100 |
| CCN(Cc1nc2cccc(N3CCN(C)CC3)n2c1CO)[C@H]1CCCc2cccnc21 [Example 32, [2-({Ethyl[(8S)-5,6,7,8-tetrahydro-8-quinolinyl]amino}methyl)-5-(4-methyl-1-piperazinyl)imidazo[1,2-a]pyridin-3-yl]methanol] | < 100 |
| CC(C)N(Cc1nc2cccc(N3CCN(C)CC3)n2c1CO)[C@H]1CCCc2cccnc21 [Example 34, [2-({(1-Methylethyl)[(8S)-5,6,7,8-tetrahydro-8-quinolinyl]amino}methyl)-5-(4-methyl-1-piperazinyl)imidazo[1,2-a]pyridin-3-yl]methanol] | < 100 |
| CCCN(Cc1nc2cccc(N3CCN(C)CC3)n2c1CO)[C@H]1CCCc2cccnc21 [Example 36, [5-(4-Methyl-1-piperazinyl)-2-({propyl[(8S)-5,6,7,8-tetrahydro-8-quinolinyl]amino}methyl)imidazo[1,2-a]pyridin-3-yl]methanol] | < 100 |
| CN1CCN(c2cccc3nc(CN(CC4CC4)[C@H]4CCCc5cccnc54)c(CO)n23)CC1 [Example 38, [2-({(Cyclopropylmethyl)[(8S)-5,6,7,8-tetrahydro-8-quinolinyl]amino}methyl)-5-(4-methyl-1-piperazinyl)imidazo[1,2-a]pyridin-3-yl]methanol] | < 100 |
| CN1CCN(c2cccc3nc(CN(Cc4ccccc4)[C@H]4CCCc5cccnc54)c(CO)n23)CC1 [Example 40, [5-(4-Methyl-1-piperazinyl)-2-({(phenylmethyl)[(8S)-5,6,7,8-tetrahydro-8-quinolinyl]amino}methyl)imidazo[1,2-a]pyridin-3-yl]methanol] | < 100 |
| CN1CCN(c2cccc3nc(CN(Cc4ccc(C(F)(F)F)cc4)[C@H]4CCCc5cccnc54)c(CO)n23)CC1 [Example 42, {5-(4-Methyl-1-piperazinyl)-2-[((8S)-5,6,7,8-tetrahydro-8-quinolinyl{[4-(trifluoromethyl)phenyl]methyl}amino)methyl]imidazo[1,2-a]pyridin-3-yl}methanol] | < 100 |
| CN(Cc1nc2cccc(N3CCCNCC3)n2c1CO)[C@H]1CCCc2cccnc21 [Example 48, [5-(Hexahydro-1H-1,4-diazepin-1-yl)-2-({methyl[(8S)-5,6,7,8-tetrahydro-8-quinolinyl]amino}methyl)imidazo[1,2-a]pyridin-3-yl]methanol] | < 100 |
| CN1CCCN(c2cccc3nc(CN(C)[C@H]4CCCc5cccnc54)c(CO)n23)CC1 [Example 50, [5-(4-Methylhexahydro-1H-1,4-diazepin-1-yl)-2-({methyl[(8S)-5,6,7,8-tetrahydro-8-quinolinyl]amino}methyl)imidazo[1,2-a]pyridin-3-yl]methanol] | < 100 |
| CN1CCC(N(C)c2cccc3nc(CN(C)[C@H]4CCCc5cccnc54)c(CO)n23)C1 (stereo partly drawn) [Example 52, [5-[Methyl(1-methyl-3-pyrrolidinyl)amino]-2-({methyl[(8S)-5,6,7,8-tetrahydro-8-quinolinyl]amino}methyl)imidazo[1,2-a]pyridin-3-yl]methanol] | < 100 |
| CC(C)N1CCN(c2cccc3nc(CN(C)[C@H]4CCCc5cccnc54)c(CO)n23)CC1 [Example 56, [5-[4-(1-Methylethyl)-1-piperazinyl]-2-({methyl[(8S)-5,6,7,8-tetrahydro-8-quinolinyl]amino}methyl)imidazo[1,2-a]pyridin-3-yl]methanol] | < 100 |
| CCCN(Cc1nc2cccc(N3CC[C@@H](N(C)C)C3)n2c1CO)[C@H]1CCCc2cccnc21 [Example 68, [5-[(3R)-3-(Dimethylamino)-1-pyrrolidinyl]-2-({propyl[(8S)-5,6,7,8-tetrahydro-8-quinolinyl]amino}methyl)imidazo[1,2-a]pyridin-3-yl]methanol] | < 100 |
| CC(C)N(Cc1nc2cccc(N3CC[C@@H](N(C)C)C3)n2c1CO)[C@H]1CCCc2cccnc21 [Example 70, [5-[(3R)-3-(Dimethylamino)-1-pyrrolidinyl]-2-({(1-methylethyl)[(8S)-5,6,7,8-tetrahydro-8-quinolinyl]amino}methyl)imidazo[1,2-a]pyridin-3-yl]methanol] | < 100 |
| CN(C)[C@@H]1CCN(c2cccc3nc(CN(CC4CC4)[C@H]4CCCc5cccnc54)c(CO)n23)C1 [Example 72, {2-({(Cyclopropylmethyl)[(8S)-5,6,7,8-tetrahydro-8-quinolinyl]amino}methyl)-5-[(3R)-3-(dimethylamino)-1-pyrrolidinyl]imidazo[1,2-a]pyridin-3-yl}methanol] | < 100 |
| CN(C)CCOc1cccc2nc(CN(C)[C@H]3CCCc4cccnc43)c(CO)n12 [Example 78, [5-{[2-(Dimethylamino)ethyl]oxy}-2-({methyl[(8S)-5,6,7,8-tetrahydro-8-quinolinyl]amino}methyl)imidazo[1,2-a]pyridin-3-yl]methanol] | < 100 |
